The source of these data is the RepoRT retention time repository.

Molecules are shown by their SMILES.

A short description of this data set: Thermo Scientific Acclaim RSLC 120 C18, 100 × 2.1 mm, 2.2 µm, 30 °C, 0.2 to 0.48 mL/min, estimated dead time 1.1 min; A: 90% water + 10% methanol + 5 mM ammonium acetate; B: methanol + 5 mM ammonium acetate; gradient (min/%B) 0.1/1 3/39 14/99.9 16/99.9. The conditions noted are these: stereoisomer not certain.
On to `COc1cc(S(=O)(=O)O)c(C)cc1N=Nc1c(O)ccc2cc(S(=O)(=O)O)ccc12`, for which the LC retention time is 2.88 min. On to `NCC1(CC(=O)O)CCCCC1`, for which the LC retention time was 4.08 min.

Turning to `CCN(CC)C(=O)Nc1ccc(OCC(O)CNC(C)(C)C)c(C(C)=O)c1` (stereo not drawn), the LC retention time was 6.76 min. As for `COC1CC(OC2C(C)OC(OC3C(C)=CCC4CC(CC5(C=CC(C)C(C(C)C)O5)O4)OC(=O)C4C=C(C)C(O)C5OCC(=CC=CC3C)C45O)CC2OC)OC(C)C1O` (stereo not drawn), the figure is 13.4 min. As for `CNC(=O)CSP(=S)(OC)OC`, the figure is 5.25 min; as for `Nc1nc2c(ncn2CCC(CO)CO)c(=O)[nH]1`, 3.34 min. As for `CCCCc1c(C)nc(NCC)nc1OS(=O)(=O)N(C)C`, the figure is 10.5 min; as for `CCc1cccc(CC)c1N(COC)C(=O)C(=O)O`, 7.69 min.

As to `CCCCOc1ccc(CC(=O)NO)cc1`, the LC retention time is 9.24 min.

Take `CN(C)C(=O)Nc1ccccc1`: the LC retention time was 5.11 min. The value for `COC(=O)C1CC2=CC(=O)CCC2(C)C23OC2CC2(C)C(CCC24CCC(=O)O4)C13` (stereo not drawn) was 6.74 min; that for `CCNP(=S)(OC)OC(C)=CC(=O)OC(C)C` (stereo not drawn) was 9.75 min. With `COCC(C)N(C(=O)C(=O)O)c1c(C)csc1C` (stereo not drawn), the LC retention time is 6.97 min.

Consider `CC12CCC3c4ccc(O)c(O)c4CCC3C1CCC2=O` (stereo not drawn), for which the LC retention time was 9.89 min. As for `CC12CCC3c4ccc(O)cc4CCC3C1CC(O)C2O` (stereo not drawn), the figure is 7.82 min; as for `CCCCc1c(C)nc(N(C)C)[nH]c1=O`, 7.97 min; as for `CCNC1CN(CCCOC)S(=O)(=O)c2sc(S(N)(=O)=O)cc21` (stereo not drawn), 5.74 min. As for `Nc1ncnc2c1ncn2C1OC(CO)C(O)C1O` (stereo not drawn), the figure is 3.84 min; as for `CNC(=O)Oc1cccc2ccccc12`, 7.42 min. The value for `CCCc1nc2c(C)cc(-c3nc4ccccc4n3C)cc2n1Cc1ccc(-c2ccccc2C(=O)O)cc1` was 11.2 min; that for `CNC(=O)N(C)c1nc2ccccc2s1` was 8.23 min; that for `c1coc(-c2nc3ccccc3[nH]2)c1` was 6.8 min. On to `CC12C=CC(=O)C=C1CCC1C2C(O)CC2(C)C1CCC2(O)C(=O)CO` (stereo not drawn), for which the LC retention time was 8.92 min.

`CCC(=C(c1ccccc1)c1ccc(OCCN(C)C)cc1)c1ccc(OC)c(O)c1`: the LC retention time is 11.5 min. The value for `NC(=O)N1c2ccccc2C2OC2c2ccccc21` (stereo not drawn) was 8.47 min.

With `CCNC1CC(C)S(=O)(=O)c2sc(S(N)(=O)=O)cc21` (stereo not drawn), the LC retention time was 4.63 min.

Turning to `O=C(O)c1ccccc1`, the LC retention time is 2.88 min. As for `CN(C)S(=O)(=O)Nc1ccccc1`, the figure is 7.14 min. The value for `Cc1cc(C)n(-c2nc3ccccc3[nH]2)n1` was 8.22 min; that for `NS(=O)(=O)c1ccccc1` was 3.92 min; that for `O=C1CC(C(=O)O)CC(=O)C1=C(O)C1CC1` (stereo not drawn) was 1.49 min.

Regarding `CCOC(=O)Nc1cccc(OC(=O)Nc2ccccc2)c1`, the LC retention time was 8.53 min.

As to `CCC(C)(CC)c1cc(NC(=O)c2c(OC)cccc2OC)on1`, the LC retention time is 9.39 min. As for `CC(C)(C)c1n[nH]c(=O)n(N)c1=O`, the figure is 6.67 min; as for `C=C(C)C1CCC(C)=CC1c1c(O)cc(CCCCC)cc1O` (stereo not drawn), 13.7 min. The value for `CC12CCC3c4ccc(O)cc4CCC3C1CCC2O` (stereo not drawn) was 10.8 min; that for `CCOP(=S)(NC(C)C)Oc1ccccc1C(=O)OC(C)C` (stereo not drawn) was 11.2 min; that for `CC(NC(=O)C(N)CC(=O)O)C(=O)NC1C(C)(C)SC1(C)C` (stereo not drawn) was 6.06 min.

For the molecule `C=CCC1(C(C)CCC)C(=O)NC(=O)NC1=O` (stereo not drawn), the LC retention time is 8.39 min. As for `CCCCCCCCCC(Oc1ccccc1)C(=O)O` (stereo not drawn), the figure is 11.4 min; as for `CC(=O)NCCCS(=O)(=O)O`, 1.46 min; as for `CC[N+]1([O-])CCCC1CNC(=O)c1cc(S(=O)(=O)CC)c(N)cc1OC` (stereo not drawn), 4.81 min. As for `CC(C)C(NC(=O)C(CC(=O)O)NC(=O)C(CCCCN)NC(=O)C(N)CCCN=C(N)N)C(=O)NC(Cc1ccc(O)cc1)C(=O)O` (stereo not drawn), the figure is 3.16 min; as for `CCCCCCCCCc1ccc(O)cc1`, 12.9 min.

Take `Nc1ncn[nH]1`: the LC retention time was 1.67 min. `CC(C(=O)O)c1ccc(N2Cc3ccccc3C2=O)cc1` (stereo not drawn): the LC retention time is 6.23 min. The value for `CCCCN1CCCCC1C(=O)Nc1c(C)cccc1C` (stereo not drawn) was 10.7 min. The value for `O=S(=O)(O)c1ccc2ccccc2c1` was 5.42 min; that for `CCCCCC(=O)c1ccc(O)cc1O` was 10.6 min; that for `COC(=O)c1ccccc1S(=O)(=O)NC(=O)Nc1nc(C)cc(C)n1` was 5.03 min. `CCCc1nn(C)c2c(=O)[nH]c(-c3cc(S(=O)(=O)N4CCN(C)CC4)ccc3OCC)nc12`: the LC retention time was 9.5 min. As for `CC1CC2(C)C(CCC3C4CCC(O)C4(C)CCC32)CC1=O` (stereo not drawn), the figure is 14.4 min.

On to `CC1(C)OCC2OC3(C(=O)O)OC(C)(C)OC3C2O1` (stereo not drawn), for which the LC retention time is 4.3 min.

Take `CCC(C)C(=O)OC1CC(O)C=C2C=CC(C)C(CCC(O)CC(O)CC(=O)O)C21` (stereo not drawn): the LC retention time is 8.27 min. As to `COC(=O)NS(=O)(=O)c1ccc(N)cc1`, the LC retention time is 1.46 min. As for `CS(=O)(=O)Nc1ccc([N+](=O)[O-])cc1Oc1ccccc1`, the figure is 8.24 min. Take `CC12CCC3C(CCC4=C(O)C(=O)CCC43C)C1CCC2=O` (stereo not drawn): the LC retention time was 6.61 min.

As for `COC(=O)Nc1cccc(OC(=O)Nc2cccc(C)c2)c1`, the LC retention time was 8.72 min. For the molecule `CCCCC1C(=O)N(c2ccccc2)N(c2ccccc2)C1=O`, the LC retention time is 7.46 min. The value for `CCCN(CCC)S(=O)(=O)c1ccc(C(=O)O)cc1` was 6.46 min; that for `Cc1cccc(C)c1N(Cn1cccn1)C(=O)CS(=O)(=O)O` was 6.02 min. The value for `CCCNC(C)C(=O)Nc1ccccc1C` (stereo not drawn) was 7.49 min; that for `COc1ccc2cc(CCC(C)=O)ccc2c1` was 8.54 min.
